In patent publication US20240307545A1, “CONJUGATE OF SAPONIN, OLIGONUCLEOTIDE AND GALNAC” (priority 2021, published 2024):
Read-outs that look alike come from different tables or passages of the source. [BNANC] = BNA^NC bridged nucleic acid nucleotide; {ThiolC6} = thiol C6 linker; d = 2'-deoxy (DNA)

Key:
[1] = Endosomal escape enhancing activity of saponin; conditions: compared with SO1861
apoB [2] = experiment: apoB gene silencing in Huh7 cells (qPCR); assay type: cell-based, human; conditions: hepatocytes with very low ASGPR1 expression (Huh7)
Method: Primary hepatocytes which highly express ASGPR1 (ASGPR1^high) and Huh7 hepatocyte cell line (low ASGPR1 expression) were treated with a concentration range of trivalent-GalNAc-ApoBBNA (TrivalentGalNAc-ApoBBNA), either in absence or presence of 300 nM trivalent-GalNAc-SO1861 (TrivalentGalNAc-SPT001) (FIGS. 20A and B).
In addition, the primary hepatocytes and the liver cells of cell line Huh7 were contacted with a concentration series of a saponin-oligonucleotide-ASGPR ligand conjugate, i.e. trivalent GalNAc conjugated with both SO1861 (DAR is 4, in a dendron with four SO1861 molecules) and ApoB BNA (SEQ ID NO: 2) ((GalNAc)3-dSPT4-ApoB (FIG. 20E), or TrivalentGalNAc-ApoBBNA-dendron(SO1861)4), and apoB mRNA expression was assessed (FIGS. 20A and B).
ApoB gene silencing in HepG2 (ASGPR1+) cells or Huh7 (ASGPR1^+/−) was determined.
RNA from cells was isolated and analysed according to standard protocols (Biorad). qPCR primers that were used are indicated in Table A2.
RNA from cells was isolated using TRI Reagent® Solution (Thermo Scientific) according to the manufacturer's instruction. Conversion into cDNA was performed using iScript™ cDNA Synthesis Kit (BioRad) using standard protocols. […]

apoB [3] = experiment: apoB mRNA expression in primary human hepatocytes (qPCR); assay type: cell-based; conditions: for IC50: primary human hepatocytes, read-out: IC50 apoB RNA levels
Method: (§1) Cryopreserved primary human hepatocytes (Cytes Biotechnologies S.L., Spain) were thawed in hepatocyte thawing media (Cytes Biotechnologies S.L., Spain). […] Cells were pre-cultured for 4-6 hrs at 37° C. allowing for cell attachment to cell culture plates before the start of treatment. Plating medium was replaced by 315 μl or 108 μl maintenance media (Cytes Biotechnologies S.L., Spain), after which conjugates were added from a 10× concentrated stock solution in PBS. Plates were incubated for 72 hr at 37° C. being harvested for gene expression and cell viability analysis.
as §1

apoB [4] = experiment: ApoB expression analysis in liver tissue of C57BL/6J mice (qRT-PCR); assay type: in vivo; conditions: for reduction of apoB RNA levels (gene expression) in liver compared to vehicle / reduction of apoB expression in liver compared to vehicle: Study A; for reduction of apoB RNA levels (gene expression) in liver compared to vehicle: 24 hrs
Method: (§2) • i. Dose administration and in-life phase. Per group, 8 C57BL/6J male mice for treatment groups (in Study A, 14 mice in vehicle control group), approximately 6-7 weeks at arrival and 8-9 weeks at dosing, were dosed. The compounds, formulated in PBS or PBS alone (vehicle) according to Table A5 and Table A6, were dosed at 5 ml/kg in the tail vain (intravenously, i.v.), with dose volumes corresponding to the individual bodyweights. Where applicable, trivalent (GalNAc)3-SO1861 (EMCH) was co-administered at 5 ml/kg in the tail vain (i.v.) right after the trivalent GalNAc-ApoB conjugate. Animals were weighed weekly and clinical observations were performed 2-3 times daily within the first 48 hrs, and at least once daily thereafter until study end. • ii. Sampling of serum, liver, and kidney tissue. […] At the relevant inter-study post-dose timepoints, 3 animals per timepoint per treatment group (6 animals in the vehicle control group in Study A) were sacrificed to collect terminal bleeds and collect relevant organs, such as liver and kidney tissues for further analyses. at end of study, the remaining 2 animals (4 in the control group in Study A) per group were sacrificed. One half of the liver and one kidney was frozen and used for tissue RNA analysis.
The mRNA was isolated from frozen liver tissue using TRIzol® Reagent (Thermo Scientific) according to the manufacturer's instruction. Conversion into cDNA was performed using iScript™ cDNA Synthesis Kit (BioRad). ApoB expression levels and levels of specific liver housekeeping genes were determined using quantitative real-time PCR assays (qRT-PCR) using iTaq™ Universal SYBR® Green Supermix (BioRad) and the Light Cycler 480 (Roche Diagnostics, Rotkreuz, Switzerland) with specific DNA primers, listed in Table A4 (Study A) and Table A7 (Study B), respectively. Analysis was done by the ΔCt method to determine apoB expression relative to 2 liver-specific housekeeping control mRNAs. Each analysis reaction was performed in triplicate.

LDL-cholesterol = experiment: Serum LDL-cholesterol (LDL-C) analysis in C57BL/6J mice; assay type: in vivo
Method: as §2
LDL-cholesterol was measured in mouse serum, using an LDL-cholesterol specific two-step AU480 assay kit, respectively, from Beckman Coulter, with a photometric measurement according to the manufacturer's instructions.

[5] = In vivo tolerability (clinical observations, body weight) in C57BL/6J mice; conditions: Study A; doses and regimens of Table A5, i.v.
Method: as §2

Compound: CC(=O)OC1C(C)OC(OC2C(C)OC(OC(=O)[C@]34CCC(C)(C)CC3C3=CCC5[C@@]6(C)CC[C@H](OC7OC(C(=O)O)C(O)C(OC8OCC(O)C(O)C8O)C7OC7OC(CO)C(O)C(O)C7O)[C@@](C)(C=O)C6CC[C@@]5(C)[C@]3(C)C[C@H]4O)C(OC3OC(C)C(OC4OCC(O)C(OC5OCC(O)C(O)C5O)C4O)C(O)C3O)C2O)C(O)C1OC1OCC(O)C(O)C1O (some centres unmarked) [SO1832]
- endosomal escape enhancing activity towards an oligonucleotide (or protein toxin) in the endosome [1]: about equally active as SO1861

Compound: (GalNAc)3-dSPT4-ApoB: trivalent GalNAc conjugated with a dendron with four SO1861 moieties and ApoB BNA (SEQ ID NO: 2) via trifunctional linker (GCCTCAGTCTGCTTCGCACC; BNA oligo conjugated to trivalent GalNAc and dendron of four SO1861 saponins, further chemistry not given here)
- response: apoB mRNA silencing (apoB [2]; low nM, conjugate alone): not responsive
- apoB gene (mRNA) silencing potency, factor higher than the GalNAc-ApoB BNA conjugate lacking covalently linked saponin (apoB [3]; primary hepatocytes, concentration series): ~100

Compound: ApoB#02 BNA: BNA^NC antisense oligonucleotide 5′-GCattggtatTCA-3′ [SEQ ID NO: 12], fully phosphorothioated, 5′-Thiol C6 linker (GCATTGGTATTCA; sugars from the 5' end [BNANC]2 d8 [BNANC]3, all phosphorothioate, 5' {ThiolC6}, methylation of C not given here)
- IC50 (apoB [3]; relative ApoB#02 BNA concentration, without transfection agent): 0.4 µM
- IC50 (apoB [3]; transfection with RNAi-MAX): 0.008 µM
- reduction of apoB RNA levels (gene expression) in liver compared to vehicle (apoB [4]; 0.1 mg/kg i.v.): not noticeably reduced
- reduction of apoB RNA levels (gene expression) in liver compared to vehicle (apoB [4]; 1 mg/kg i.v.): ~15%
- reduction of apoB RNA levels (gene expression) in liver compared to vehicle (apoB [4]; 2 mg/kg i.v.): ~21%
- reduction of apoB expression in liver compared to vehicle (apoB [4]; 2 mg/kg, 72 hrs): 39%
- reduction of apoB expression in liver compared to vehicle (apoB [4]; 2 mg/kg, 336 hrs): 30%
- apoB RNA levels (gene expression) in liver, % of vehicle control (apoB [4]; Study B, 2 mg/kg, 72 hrs): 53%
- reduction of serum LDL-C compared to vehicle (LDL-cholesterol; Study A, 2 mg/kg, 72 hrs): ~50%
- reduction of serum LDL-C compared to vehicle (LDL-cholesterol; Study A, 2 mg/kg, 336 hrs): ~40%
- serum LDL-C levels compared to vehicle (in words) (LDL-cholesterol; Study A, 0.1, 1, or 2 mg/kg, 24 hrs): not noticeably reduced
- serum LDL-C level (LDL-cholesterol; Study B, 2 mg/kg, 72 hrs post-dose): 2 mg/dL
- tolerability (adverse findings, clinical observations) [5]: well tolerated

Compound: TrivalentGalNAc-ApoBBNA: conjugate of trivalent GalNAc and the ApoB antisense BNA oligonucleotide ApoBBNA (SEQ ID NO: 2); L or S linker not stated (GCCTCAGTCTGCTTCGCACC; BNA oligonucleotide conjugated to trivalent GalNAc, pattern not explicitly stated, further chemistry not given here)
- response: apoB mRNA silencing (apoB [2]; low nM + trivalentGalNAc-SPT001): not responsive
